Measurements published in ChEMBL document CHEMBL3132769, “Fragment growing to retain or alter the selectivity of anchored kinase hinge-binding fragments” (Medchemcomm, 2014).

Columns and labels:
[1] = molecular target: Receptor-type tyrosine-protein kinase FLT3 (Homo sapiens) (UniProt P36888); experiment: Inhibition of human FLT3 catalytic domain expressed in baculovirus assessed as substrate phosphorylation using fluorescence-labelled peptides as substrate at 0.2 uM after 90 mins by microfluidic peptide phosphorylation assay
[2] = molecular target: T1, Cytoplasmic tyrosine-protein kinase BMX (Homo sapiens) (UniProt P51813); experiment: Inhibition of human full length BMX expressed in baculovirus assessed as substrate phosphorylation using fluorescence-labelled peptides as substrate at 420 uM after 90 mins by microfluidic peptide phosphorylation assay
T1 sequence (whole entry): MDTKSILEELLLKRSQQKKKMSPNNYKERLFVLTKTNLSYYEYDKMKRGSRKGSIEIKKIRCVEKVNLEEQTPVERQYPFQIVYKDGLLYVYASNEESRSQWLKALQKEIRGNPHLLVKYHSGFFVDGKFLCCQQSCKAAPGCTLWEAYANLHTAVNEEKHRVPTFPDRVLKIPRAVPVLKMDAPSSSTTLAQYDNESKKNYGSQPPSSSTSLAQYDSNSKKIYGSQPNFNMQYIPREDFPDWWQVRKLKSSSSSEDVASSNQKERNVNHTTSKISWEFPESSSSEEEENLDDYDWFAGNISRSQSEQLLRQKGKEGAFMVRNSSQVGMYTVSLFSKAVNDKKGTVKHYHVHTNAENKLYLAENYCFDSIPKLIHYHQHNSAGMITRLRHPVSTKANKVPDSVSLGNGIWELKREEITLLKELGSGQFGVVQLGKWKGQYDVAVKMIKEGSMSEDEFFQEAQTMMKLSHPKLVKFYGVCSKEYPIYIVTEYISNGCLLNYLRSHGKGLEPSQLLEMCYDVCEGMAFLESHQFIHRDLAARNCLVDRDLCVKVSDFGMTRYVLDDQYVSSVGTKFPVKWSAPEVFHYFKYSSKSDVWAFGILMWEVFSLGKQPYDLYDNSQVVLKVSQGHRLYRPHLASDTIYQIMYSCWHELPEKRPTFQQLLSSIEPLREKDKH

[3] = molecular target: MAP/microtubule affinity-regulating kinase 3 (Homo sapiens) (UniProt P27448); experiment: Inhibition of human full length c-TAK1 expressed in Escherichia coli cell assessed as substrate phosphorylation using fluorescence-labelled peptides as substrate at 9 uM after 90 mins by microfluidic peptide phosphorylation assay
[4] = molecular target: Tyrosine-protein kinase ABL1 (Homo sapiens) (UniProt P00519); experiment: Inhibition of human full-length ABL expressed in baculovirus assessed as substrate phosphorylation using fluorescence-labelled peptides as substrate at 2 uM after 90 mins by microfluidic peptide phosphorylation assay
[5] = molecular target: Serine/threonine-protein kinase pim-1 (Homo sapiens) (UniProt P11309); experiment: Inhibition of human full length PIM1 expressed in baculovirus assessed as substrate phosphorylation using fluorescence-labelled peptides as substrate at 0.1 uM after 90 mins by microfluidic peptide phosphorylation assay
[6] = molecular target: T2, Serine/threonine-protein kinase Sgk2 (Homo sapiens) (UniProt Q9HBY8); experiment: Inhibition of human full length SGK2 expressed in baculovirus assessed as substrate phosphorylation using fluorescence-labelled peptides as substrate at 95 uM after 90 mins by microfluidic peptide phosphorylation assay
T2 sequence (whole entry): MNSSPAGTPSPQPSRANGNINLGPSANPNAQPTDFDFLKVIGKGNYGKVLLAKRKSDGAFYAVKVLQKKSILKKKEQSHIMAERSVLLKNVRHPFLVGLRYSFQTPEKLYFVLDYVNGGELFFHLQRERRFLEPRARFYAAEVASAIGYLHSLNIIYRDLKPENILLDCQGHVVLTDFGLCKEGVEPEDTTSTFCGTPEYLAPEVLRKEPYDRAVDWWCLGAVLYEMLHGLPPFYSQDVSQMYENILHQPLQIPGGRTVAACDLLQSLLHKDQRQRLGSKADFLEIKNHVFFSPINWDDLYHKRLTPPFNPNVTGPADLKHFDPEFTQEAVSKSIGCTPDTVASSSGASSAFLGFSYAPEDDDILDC

[7] = molecular target: Casein kinase I isoform delta (Homo sapiens) (UniProt P48730); experiment: Inhibition of human CK1D catalytic domain expressed in Escherichia coli cell assessed as substrate phosphorylation using fluorescence-labelled peptides as substrate at […] after 90 mins by microfluidic peptide phosphorylation assay
[8] = molecular target: Ribosomal protein S6 kinase alpha-5 (Homo sapiens) (UniProt O75582); experiment: Inhibition of human full length MSK1 expressed in baculovirus assessed as substrate phosphorylation using fluorescence-labelled peptides as substrate at 0.06 uM after 90 mins by microfluidic peptide phosphorylation assay
[9] = molecular target: T3, Interleukin-1 receptor-associated kinase 4 (Homo sapiens) (UniProt Q9NWZ3); experiment: Inhibition of human IRAK4 catalytic domain expressed in baculovirus assessed as substrate phosphorylation using fluorescence-labelled peptides as substrate at 8 uM after 90 mins by microfluidic peptide phosphorylation assay
T3 sequence (whole entry): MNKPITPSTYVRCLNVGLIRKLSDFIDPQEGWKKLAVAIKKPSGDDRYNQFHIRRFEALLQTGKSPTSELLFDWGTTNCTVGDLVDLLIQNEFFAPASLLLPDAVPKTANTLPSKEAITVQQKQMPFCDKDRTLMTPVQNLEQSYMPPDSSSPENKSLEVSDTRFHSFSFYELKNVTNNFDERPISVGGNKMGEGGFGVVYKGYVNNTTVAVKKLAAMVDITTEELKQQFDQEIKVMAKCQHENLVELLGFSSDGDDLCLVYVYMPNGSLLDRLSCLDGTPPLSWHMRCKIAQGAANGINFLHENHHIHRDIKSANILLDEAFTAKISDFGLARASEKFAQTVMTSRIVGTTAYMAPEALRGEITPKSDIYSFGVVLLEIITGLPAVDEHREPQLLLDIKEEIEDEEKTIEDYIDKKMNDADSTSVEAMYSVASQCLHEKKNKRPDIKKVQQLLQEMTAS

[10] = molecular target: Dual specificity tyrosine-phosphorylation-regulated kinase 1A (Rattus norvegicus) (UniProt Q63470); experiment: Inhibition of rat full length DYRK1a expressed in Escherichia coli cell assessed as substrate phosphorylation using fluorescence-labelled peptides as substrate at 70 uM after 90 mins by microfluidic peptide phosphorylation assay
[11] = molecular target: Ribosomal protein S6 kinase alpha-2 (Homo sapiens) (UniProt Q15349); experiment: Inhibition of human full length RSK3 expressed in baculovirus assessed as substrate phosphorylation using fluorescence-labelled peptides as substrate at 70 uM after 90 mins by microfluidic peptide phosphorylation assay
[12] = molecular target: Tyrosine-protein kinase ABL2 (Homo sapiens) (UniProt P42684); experiment: Inhibition of human truncated Arg expressed in baculovirus assessed as substrate phosphorylation using fluorescence-labelled peptides as substrate at 70 uM after 90 mins by microfluidic peptide phosphorylation assay
Sequence of Tyrosine-protein kinase ABL2 (Homo sapiens) (P42684 whole entry, the tested form may be a part): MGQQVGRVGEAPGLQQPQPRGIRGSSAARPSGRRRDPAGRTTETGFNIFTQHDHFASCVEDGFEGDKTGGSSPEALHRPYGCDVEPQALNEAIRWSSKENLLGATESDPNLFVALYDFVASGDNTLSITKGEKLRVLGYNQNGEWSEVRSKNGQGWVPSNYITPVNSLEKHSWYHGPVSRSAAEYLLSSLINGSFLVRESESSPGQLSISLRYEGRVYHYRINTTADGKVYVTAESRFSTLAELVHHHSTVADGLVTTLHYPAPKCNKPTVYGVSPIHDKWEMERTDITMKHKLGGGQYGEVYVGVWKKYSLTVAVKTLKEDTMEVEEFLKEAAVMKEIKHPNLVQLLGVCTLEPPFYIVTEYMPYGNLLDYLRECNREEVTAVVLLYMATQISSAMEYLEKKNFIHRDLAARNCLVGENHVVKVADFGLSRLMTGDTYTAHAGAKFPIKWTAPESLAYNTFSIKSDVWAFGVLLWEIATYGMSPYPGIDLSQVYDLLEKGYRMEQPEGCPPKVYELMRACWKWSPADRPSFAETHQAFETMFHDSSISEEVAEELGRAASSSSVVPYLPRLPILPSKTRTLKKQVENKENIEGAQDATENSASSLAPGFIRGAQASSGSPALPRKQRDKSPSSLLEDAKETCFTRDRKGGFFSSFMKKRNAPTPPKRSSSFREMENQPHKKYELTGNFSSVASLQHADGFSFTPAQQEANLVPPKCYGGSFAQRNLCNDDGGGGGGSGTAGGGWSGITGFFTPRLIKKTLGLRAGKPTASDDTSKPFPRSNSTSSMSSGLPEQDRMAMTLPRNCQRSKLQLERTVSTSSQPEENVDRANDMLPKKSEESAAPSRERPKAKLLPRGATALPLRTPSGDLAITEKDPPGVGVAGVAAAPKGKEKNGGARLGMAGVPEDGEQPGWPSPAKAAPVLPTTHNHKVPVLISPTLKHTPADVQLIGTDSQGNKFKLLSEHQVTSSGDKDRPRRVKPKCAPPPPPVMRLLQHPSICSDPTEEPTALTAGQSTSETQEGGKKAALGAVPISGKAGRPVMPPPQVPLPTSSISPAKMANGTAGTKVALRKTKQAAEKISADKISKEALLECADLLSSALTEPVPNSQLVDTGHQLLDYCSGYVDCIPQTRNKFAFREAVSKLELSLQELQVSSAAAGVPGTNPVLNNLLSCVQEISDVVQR

Sequence of Casein kinase I isoform delta (Homo sapiens) (P48730 whole entry, looked up, the tested form may be a part, canonical isoform): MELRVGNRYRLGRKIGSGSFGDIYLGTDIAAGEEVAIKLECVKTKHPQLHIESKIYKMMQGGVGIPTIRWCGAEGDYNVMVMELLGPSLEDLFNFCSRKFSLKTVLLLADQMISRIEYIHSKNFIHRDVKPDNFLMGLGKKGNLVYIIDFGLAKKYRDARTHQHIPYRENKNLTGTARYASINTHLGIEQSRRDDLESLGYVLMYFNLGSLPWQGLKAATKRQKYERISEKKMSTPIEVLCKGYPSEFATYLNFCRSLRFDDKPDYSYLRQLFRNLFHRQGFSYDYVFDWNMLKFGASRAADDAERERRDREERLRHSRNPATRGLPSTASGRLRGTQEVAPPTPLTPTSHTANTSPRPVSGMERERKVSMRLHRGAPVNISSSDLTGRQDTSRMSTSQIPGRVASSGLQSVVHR
Sequence of Receptor-type tyrosine-protein kinase FLT3 (Homo sapiens) (P36888 whole entry, the tested form may be a part): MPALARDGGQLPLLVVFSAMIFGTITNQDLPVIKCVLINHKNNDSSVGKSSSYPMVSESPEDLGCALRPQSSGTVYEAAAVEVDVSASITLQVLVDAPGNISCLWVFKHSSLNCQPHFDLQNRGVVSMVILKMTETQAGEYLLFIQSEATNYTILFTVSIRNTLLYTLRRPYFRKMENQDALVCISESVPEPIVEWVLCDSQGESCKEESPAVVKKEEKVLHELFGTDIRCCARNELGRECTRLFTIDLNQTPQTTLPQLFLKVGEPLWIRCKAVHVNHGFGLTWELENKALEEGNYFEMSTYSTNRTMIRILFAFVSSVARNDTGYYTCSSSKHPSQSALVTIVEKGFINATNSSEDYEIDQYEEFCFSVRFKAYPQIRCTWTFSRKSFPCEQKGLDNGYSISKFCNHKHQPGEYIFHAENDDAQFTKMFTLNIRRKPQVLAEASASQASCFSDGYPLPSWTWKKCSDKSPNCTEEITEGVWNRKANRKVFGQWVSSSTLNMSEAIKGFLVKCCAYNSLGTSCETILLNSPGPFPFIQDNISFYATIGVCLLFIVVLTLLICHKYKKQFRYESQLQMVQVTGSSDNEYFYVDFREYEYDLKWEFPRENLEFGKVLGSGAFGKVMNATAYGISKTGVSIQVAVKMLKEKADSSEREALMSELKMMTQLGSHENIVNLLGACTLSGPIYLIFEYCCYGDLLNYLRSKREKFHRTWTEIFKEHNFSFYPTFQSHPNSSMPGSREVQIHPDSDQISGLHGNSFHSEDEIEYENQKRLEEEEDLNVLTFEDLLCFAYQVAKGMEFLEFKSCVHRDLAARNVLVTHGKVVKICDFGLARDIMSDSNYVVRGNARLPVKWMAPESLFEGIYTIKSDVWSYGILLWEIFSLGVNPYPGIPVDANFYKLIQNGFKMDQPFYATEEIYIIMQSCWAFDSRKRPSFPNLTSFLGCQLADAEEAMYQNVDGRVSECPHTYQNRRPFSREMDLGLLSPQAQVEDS
Sequence of Ribosomal protein S6 kinase alpha-2 (Homo sapiens) (Q15349 whole entry, the tested form may be a part): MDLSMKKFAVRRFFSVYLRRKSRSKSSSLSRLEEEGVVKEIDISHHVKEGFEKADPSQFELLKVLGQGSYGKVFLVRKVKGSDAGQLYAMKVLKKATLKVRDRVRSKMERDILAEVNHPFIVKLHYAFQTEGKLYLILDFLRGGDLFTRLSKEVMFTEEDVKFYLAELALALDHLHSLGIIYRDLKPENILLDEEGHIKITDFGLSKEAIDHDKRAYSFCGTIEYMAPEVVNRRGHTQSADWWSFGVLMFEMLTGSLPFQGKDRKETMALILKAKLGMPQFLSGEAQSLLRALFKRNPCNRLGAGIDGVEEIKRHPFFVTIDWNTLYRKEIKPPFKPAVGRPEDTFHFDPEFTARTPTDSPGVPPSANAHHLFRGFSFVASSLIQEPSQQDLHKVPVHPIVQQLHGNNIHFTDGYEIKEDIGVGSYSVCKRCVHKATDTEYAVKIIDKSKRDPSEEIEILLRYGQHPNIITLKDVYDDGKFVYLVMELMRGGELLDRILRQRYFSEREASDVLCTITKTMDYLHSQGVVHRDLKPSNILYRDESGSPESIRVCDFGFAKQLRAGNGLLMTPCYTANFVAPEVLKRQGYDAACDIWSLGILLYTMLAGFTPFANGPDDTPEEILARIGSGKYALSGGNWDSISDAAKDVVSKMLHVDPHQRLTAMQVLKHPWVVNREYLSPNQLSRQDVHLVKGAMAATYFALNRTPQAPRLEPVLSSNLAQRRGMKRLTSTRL
Sequence of Serine/threonine-protein kinase pim-1 (Homo sapiens) (P11309 whole entry, looked up): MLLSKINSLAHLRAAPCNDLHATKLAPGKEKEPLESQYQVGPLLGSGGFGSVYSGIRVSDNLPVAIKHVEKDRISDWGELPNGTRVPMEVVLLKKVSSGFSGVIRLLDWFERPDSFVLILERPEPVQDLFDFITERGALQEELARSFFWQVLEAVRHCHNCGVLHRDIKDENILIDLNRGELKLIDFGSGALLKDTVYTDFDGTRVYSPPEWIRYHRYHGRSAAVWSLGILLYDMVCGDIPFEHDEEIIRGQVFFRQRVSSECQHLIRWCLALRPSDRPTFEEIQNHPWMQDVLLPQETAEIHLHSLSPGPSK
Sequence of MAP/microtubule affinity-regulating kinase 3 (Homo sapiens) (P27448 whole entry, looked up): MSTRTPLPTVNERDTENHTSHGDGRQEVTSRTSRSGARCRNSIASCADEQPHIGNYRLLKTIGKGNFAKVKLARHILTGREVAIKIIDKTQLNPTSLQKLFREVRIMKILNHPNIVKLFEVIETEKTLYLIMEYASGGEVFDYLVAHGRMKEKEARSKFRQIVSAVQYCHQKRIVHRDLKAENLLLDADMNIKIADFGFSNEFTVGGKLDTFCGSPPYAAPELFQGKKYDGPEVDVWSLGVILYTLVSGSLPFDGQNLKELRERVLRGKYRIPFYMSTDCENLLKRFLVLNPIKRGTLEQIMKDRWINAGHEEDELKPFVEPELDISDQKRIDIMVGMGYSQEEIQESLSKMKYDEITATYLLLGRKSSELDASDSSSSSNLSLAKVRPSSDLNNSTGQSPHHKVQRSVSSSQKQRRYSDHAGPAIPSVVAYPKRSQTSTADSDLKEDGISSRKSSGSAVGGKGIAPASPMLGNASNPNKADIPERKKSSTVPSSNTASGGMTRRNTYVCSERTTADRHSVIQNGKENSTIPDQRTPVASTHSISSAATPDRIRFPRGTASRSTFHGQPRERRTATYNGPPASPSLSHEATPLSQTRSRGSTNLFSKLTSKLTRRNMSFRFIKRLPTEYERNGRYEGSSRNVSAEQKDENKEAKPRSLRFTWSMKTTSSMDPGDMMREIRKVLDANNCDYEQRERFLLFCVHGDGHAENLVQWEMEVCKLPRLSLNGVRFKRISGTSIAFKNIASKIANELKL

For Clc1ccc(C2(c3ccc(-c4ncnc5[nH]cnc45)cc3)CCNCC2)cc1, the inhibition [1] was 7.5%.

Molecule c1nc(N2CCOCC2)c2nc[nH]c2n1 has an inhibition [2] of 62.5%.

NCC1CN(c2ncnc3[nH]c4cnccc4c23)CCO1 (configuration not stated) gave an inhibition [3] of 30%.

NC1CCN(c2ncnc3[nH]ccc23)CC1 was tested, and the inhibition [4] was 13.5%.

C[C@H](CN(C)C)Oc1nc(Nc2cc3cccc(Cl)c3cn2)cnc1C#N gave an inhibition [5] of 9.5%.

Work on NCCc1ccc(-c2ncnc3[nH]cnc23)cc1 yielded an inhibition [6] of 50.5%.

COC(=O)c1cnc(Nc2cnc(C#N)cn2)cc1NCC1CCNCC1 showed an inhibition [7] of 10.5%.

NC1(Cc2ccc(Cl)cc2)CCN(c2ncnc3[nH]ccc23)CC1 gave an inhibition [8] of 5.5%.

With NCC1CCN(c2ncnc3[nH]ccc23)CC1 the inhibition [9] was 25.5%.

For CNCc1ccc(-c2ncnc3[nH]cnc23)cc1, the inhibition [10] was 61%, the inhibition [11] was 81% and the inhibition [12] was 33%.
